# Laboratory results from paper PMC3434256 (Journal of the American Chemical Society, 2012).
# Several values for one entry are separate records, joined by “and”; a condition that tells them apart may be missing. Equal values may be shown once. Read-outs that look alike come from different tables or passages of the source. Marks after values point to notes of the source that are not given here.
# What was measured:
# [1] = Nonenzymatic C-6 deuterium exchange catalyzed by deuterioxide ion in D2O; details: for kDO, second-order rate constant for deuterioxide-ion-catalyzed deuterium exchange at C-6: D2O; for kDO, second-order rate constant for deuterioxide-ion-catalyzed deuterium exchange at C-6 / kHO, second-order rate constant for proton transfer from C-6 to hydroxide ion: 25 °C; for kHO, second-order rate constant for proton transfer from C-6 to hydroxide ion: H2O, calculated from kDO using kDO/kHO = 2.4; for (Keq)aq, equilibrium constant for proton transfer from C-6 to a primary amine base of pKRNH3 = 7 in water: eq 12, pKCH of model nucleosides uridine and 5-fluorouridine
# ScOMPDC [2] = details: cited from earlier work; for Kd: read-out: (Kd)obsd, observed affinity of ScOMPDC, pH 7.2, H2O
# [3] = cited from earlier work
# [4] = biological target: T1, yeast orotidine 5′-monophosphate decarboxylase (ScOMPDC) (Saccharomyces cerevisiae, UniProt P03962, A160S/C155S/N267D/S2H); details: for kex, turnover number for deuterium exchange into enzyme-bound substrate / kex/Kd, second-order rate constant for enzyme-catalyzed deuterium exchange / (kex)max, intrinsic first-order rate constant (turnover number) for deuterium exchange into saturating substrate bound to the deprotonated enzyme: I = 0.1 (NaCl); for kex/Kd, second-order rate constant for enzyme-catalyzed deuterium exchange: ratio of kex and Kd; for free energy of binding to form the Michaelis complex: deprotonated enzyme; for (Keq)enz, equilibrium constant for proton transfer from C-6 of bound nucleotide to ScOMPDC: eq 11, krot = 10^7 s^−1; for Kd′/Kd, ratio of dissociation constants from protonated and deprotonated enzyme: from pKE - pKES; for stabilization of enzyme-bound vinyl carbanion relative to bound nucleotide: lower limit; for (kex)max, intrinsic first-order rate constant (turnover number) for deuterium exchange into saturating substrate bound to the deprotonated enzyme: pD-rate profile of kex fit to eq 7, D2O, 25 °C
# T1 sequence (P03962 whole entry S2H/C155S/A160S/N267D): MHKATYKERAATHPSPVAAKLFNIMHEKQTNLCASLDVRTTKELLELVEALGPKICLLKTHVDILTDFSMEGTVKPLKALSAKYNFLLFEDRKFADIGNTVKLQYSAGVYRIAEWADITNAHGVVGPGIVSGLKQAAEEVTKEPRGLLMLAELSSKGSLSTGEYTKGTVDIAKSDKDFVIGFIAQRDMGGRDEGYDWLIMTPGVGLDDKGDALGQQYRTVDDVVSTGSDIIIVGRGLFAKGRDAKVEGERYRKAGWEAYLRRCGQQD
# [5] = pKa of the N-3 hydron, spectrophotometric; assay type: physicochemical
# [6] = biological target: T1, yeast orotidine 5′-monophosphate decarboxylase (ScOMPDC); assay: biochemical
# [7] = pKa of the phosphoryl group by titration; assay type: physicochemical; details: D2O, I = 0.1, estimated from UMP pKa in H2O plus 0.5 unit
# [8] = aqueous solution; cited from earlier work
# ScOMPDC [9] = details: pH 7.1, 25 °C; cited from earlier work
# [10] = titration, H2O, 25 °C, I = 0.1; cited from earlier work
smiles,measurement,setting,value
Cn1cc(F)c(=O)n(C)c1=O,"kDO, second-order rate constant for deuterioxide-ion-catalyzed deuterium exchange at C-6",[1],0.043 M⁻¹ s⁻¹
same,"kHO, second-order rate constant for proton transfer from C-6 to hydroxide ion",[1],0.018 M⁻¹ s⁻¹
O=c1ccn([C@H]2C[C@H](O)[C@@H](COP(=O)(O)O)O2)c(=O)[nH]1 [2′-deoxyuridine 5′-monophosphate],Kd,ScOMPDC [2],170 µM
"O=c1[nH]c(=O)n(C2OC(CO)C(O)C2O)cc1F (stereo not drawn) [5-Fluorouridine N-3 Anion, 5-fluorouridine N-3 anion]","kDO, second-order rate constant for deuterioxide-ion-catalyzed deuterium exchange at C-6",[1],6.8e-05 M⁻¹ s⁻¹
same,"kHO, second-order rate constant for proton transfer from C-6 to hydroxide ion",[1],2.8e-05 M⁻¹ s⁻¹
"O=c1[nH]c(=O)n([C@@H]2O[C@H](CO)[C@@H](O)[C@H]2O)cc1F [5-Fluorouridine, 5-fluorouridine]","kDO, second-order rate constant for deuterioxide-ion-catalyzed deuterium exchange at C-6",[1],1.7 M⁻¹ s⁻¹
same,"kHO, second-order rate constant for proton transfer from C-6 to hydroxide ion",[1],0.71 M⁻¹ s⁻¹
same,"ko = kHO[HO^−], observed rate constant for C-6 deprotonation by hydroxide ion","[1]; water, pH 7.1",9e-08 s⁻¹
O=c1[nH]c(=O)n([C@H]2C[C@H](O)[C@@H](COP(=O)(O)O)O2)cc1F [5-fluoro-2′-deoxyuridine 5′-monophosphate],Kd,ScOMPDC [2],250 µM
same,pKa of the N-3 proton (pKNH),"[3]; H2O, 25 °C, I = 0.1",7.90
O=c1[nH]c(=O)n([C@H]2C[C@H](O)[C@@H](CO)O2)cc1F [5-fluoro-2′-deoxyuridine],pKa of the N-3 proton,"[3]; H2O, 25 °C, I = 0.1",7.67
"O=c1cnn([C@@H]2O[C@H](COP(=O)(O)O)[C@@H](O)[C@H]2O)c(=O)[nH]1 [6-aza-UMP, 6-azauridine 5′-monophosphate]",Ki,"ScOMPDC [2]; pH 7.2, competitive inhibitor",0.093 µM
same,deuterium exchange into UMP (2 mM) in the presence of inhibitor,"[4]; 2 mM 6-aza-UMP, 260 μM ScOMPDC, 2 days, pD 9.3, 25 °C",no detectable deuterium exchange
"O=c1[nH]c(=O)n([C@@H]2O[C@H](COP(=O)(O)O)[C@@H](O)[C@H]2O)cc1F [F-UMP, 5-fluorouridine 5′-monophosphate]",pKa,[5]; buffered D2O,8.37 ± 0.05
same,pKa,[5]; buffered H2O,7.84 ± 0.03
same,Kd,[6],140 µM
same,"(Keq)aq, equilibrium constant for proton transfer from C-6 to a primary amine base of pKRNH3 = 7 in water",[1],8 × 10^−19
same,decrease in pKa of the side chain of Lys-93 upon binding (pKE - pKES),[4],1.4 unit
same,transition state stabilization for deuterium exchange,[4],14 kcal/mol
same,"kex, turnover number for deuterium exchange into enzyme-bound substrate","[4]; D2O, pD 6.45, 25 °C, fit to eq 5",0.00818 s⁻¹
same,"kex/Kd, second-order rate constant for enzyme-catalyzed deuterium exchange","[4]; D2O, pD 6.45, 25 °C",8.3 M⁻¹ s⁻¹
same,"kex, turnover number for deuterium exchange into enzyme-bound substrate","[4]; D2O, pD 7.03, 25 °C, fit to eq 5",0.0169 s⁻¹
same,"kex/Kd, second-order rate constant for enzyme-catalyzed deuterium exchange","[4]; D2O, pD 7.03, 25 °C",33 M⁻¹ s⁻¹
same,"kex, turnover number for deuterium exchange into enzyme-bound substrate","[4]; D2O, pD 7.37, 25 °C, fit to eq 5",0.0242 s⁻¹
same,"kex/Kd, second-order rate constant for enzyme-catalyzed deuterium exchange","[4]; D2O, pD 7.37, 25 °C",140 M⁻¹ s⁻¹
same,"kex, turnover number for deuterium exchange into enzyme-bound substrate","[4]; D2O, pD 7.64, 25 °C, fit to eq 5",0.0324 s⁻¹
same,"kex/Kd, second-order rate constant for enzyme-catalyzed deuterium exchange","[4]; D2O, pD 7.64, 25 °C",300 M⁻¹ s⁻¹
same,kex for deuterium exchange,"[4]; D2O, pD 8.15, 25 °C, I = 0.10 (NaCl), fit of kobsd/[E] to eq 4",0.048 s⁻¹
same,"kex, turnover number for deuterium exchange into enzyme-bound substrate","[4]; D2O, pD 8.15, 25 °C, fit to eq 5",0.0438 s⁻¹
same,"kex/Kd, second-order rate constant for enzyme-catalyzed deuterium exchange","[4]; D2O, pD 8.15, 25 °C",400 M⁻¹ s⁻¹
same,"kex, turnover number for deuterium exchange into enzyme-bound substrate","[4]; D2O, pD 9.33, 25 °C, fit to eq 5",0.0384 s⁻¹
same,"kex/Kd, second-order rate constant for enzyme-catalyzed deuterium exchange","[4]; D2O, pD 9.33, 25 °C",200 M⁻¹ s⁻¹
same,stabilization of the transition state for deuterium exchange by the 5-fluoro substituent,[4]; F-UMP vs UMP,4.8 kcal/mol
same,"pKE, pKa of the essential residue at the free enzyme",[4]; Saccharomyces cerevisiae,8.5 ± 0.2 ^d
same,"pKES, pKa of the essential residue (Lys-93) at the E•S complex",[4]; Saccharomyces cerevisiae,7.1 ± 0.1 ^f
same,free energy of binding to form the Michaelis complex,[4],6.4 kcal/mol
same,"(Keq)enz, equilibrium constant for proton transfer from C-6 of bound nucleotide to ScOMPDC",[4],4.1 × 10^−9
same,"Kd′/Kd, ratio of dissociation constants from protonated and deprotonated enzyme",[4],25
same,stabilization of enzyme-bound vinyl carbanion relative to bound nucleotide,[4],at least 13 kcal/mol
same,"(kex)max, intrinsic first-order rate constant (turnover number) for deuterium exchange into saturating substrate bound to the deprotonated enzyme",[4],0.041 s⁻¹
same,total enzymatic rate acceleration for deuterium exchange,[4]; ratio of (kex)max/Kd and ko for 5-fluorouridine at pH 7.1,3e+10 M⁻¹
same,"pKSD2, ionization of the phosphoryl group",[7],6.8
"O=C(O)c1cc(=O)[nH]c(=O)n1[C@@H]1O[C@H](COP(=O)(O)O)[C@@H](O)[C@H]1O [OMP, orotidine 5′-monophosphate]","ko, nonenzymatic decarboxylation",[8],2.8e-16 s⁻¹
same,kcat for decarboxylation,ScOMPDC [9],15 s⁻¹
same,pKa of the phosphoryl group,[10],6.38
"O=c1ccn([C@@H]2O[C@H](COP(=O)(O)O)[C@@H](O)[C@H]2O)c(=O)[nH]1 [UMP, uridine 5′-monophosphate]",pKa of the N-3 proton (pKNH),"[3]; H2O, 25 °C, I = 0.1",9.7
same,pKNH,"[3]; ref Jencks, Regenstein, Handbook of Biochemistry and Molecular Biology 1976",9.5
same,"(Keq)aq, equilibrium constant for proton transfer from C-6 to a primary amine base of pKRNH3 = 7 in water",[1],2 × 10^−22
same,pKa of the phosphoryl group,[10],6.26 and 6.3
same,decrease in pKa of the side chain of Lys-93 upon binding (pKE - pKES),[4],0.5 unit
same,"kex, turnover number for deuterium exchange into enzyme-bound substrate","[4]; D2O, pD 7.03, 25 °C, average of kobsd[UMP]o/[E]",1.2e-06 s⁻¹
same,"kex, turnover number for deuterium exchange into enzyme-bound substrate","[4]; D2O, pD 7.58, 25 °C, average of kobsd[UMP]o/[E]",3.19e-06 s⁻¹
same,"kex, turnover number for deuterium exchange into enzyme-bound substrate","[4]; D2O, pD 8.13, 25 °C, average of kobsd[UMP]o/[E]",7.53e-06 s⁻¹
same,"kex, turnover number for deuterium exchange into enzyme-bound substrate","[4]; D2O, pD 9.34, 25 °C, average of kobsd[UMP]o/[E]",1.15e-05 s⁻¹
same,free energy of binding to form the Michaelis complex,[4],6.4 kcal/mol
same,"(Keq)enz, equilibrium constant for proton transfer from C-6 of bound nucleotide to ScOMPDC",[4],1.2 × 10^−12
same,"Kd′/Kd, ratio of dissociation constants from protonated and deprotonated enzyme",[4],3
same,stabilization of enzyme-bound vinyl carbanion relative to bound nucleotide,[4],at least 13 kcal/mol
same,hydrolysis of the 5′-phosphoryl group during exchange reaction,[4]; pD 7.0,up to 19%
same,hydrolysis of the glycosidic bond to give uracil during exchange reaction,[4]; pD 7.0,up to 24%
same,hydrolysis of the 5′-phosphoryl group to give uridine during exchange reaction,[4]; pD 7.6 – 9.3,up to 4%
same,"(kex)max, intrinsic first-order rate constant (turnover number) for deuterium exchange into saturating substrate bound to the deprotonated enzyme",[4],1.2e-05 s⁻¹
"O=c1ccn([C@@H]2O[C@H](CO)[C@@H](O)[C@H]2O)c(=O)[nH]1 [Uridine N-3 Anion, uridine N-3 anion]","kDO, second-order rate constant for deuterioxide-ion-catalyzed deuterium exchange at C-6",[1],1.5e-08 M⁻¹ s⁻¹
same,"kHO, second-order rate constant for proton transfer from C-6 to hydroxide ion",[1],6.3e-09 M⁻¹ s⁻¹
"O=c1ccn([C@@H]2O[C@H](CO)[C@@H](O)[C@H]2O)c(=O)[nH]1 [Uridine, uridine]","kHO, second-order rate constant for proton transfer from C-6 to hydroxide ion",[1],0.00016 M⁻¹ s⁻¹
O=C[C@H](O)[C@H](O)[C@H](O)COP(=O)(O)O [ribose 5′-monophosphate],pKa of the phosphoryl group,[10],6.25
